We go through two compounds from patent US9814724B2, “Antitumor effect potentiator and antitumor agent” (TAIHO PHARMACEUTICAL CO., LTD., priority 2003, dated 2017).

Series [1] concerns human colon cancer cell line Colon 38. The experiment in a line: Antitumor effect on subcutaneously implanted Colon 38 tumor in mice, 9-day oral dosing (Example 2). As to conditions: folinic acid 40.0 mg/kg/day (given as calcium folinate), alone or with tegafur+gimeracil+oteracil potassium 8.7+2.5+8.5 mg/kg/day or tegafur+uracil 15.1+33.8 mg/kg/day, oral once a day for 9 days; 12 days after grouping, vs control group. The class given is in vivo, male mice C57BL/6. How it is done: (§1) The ratio of the tumor volume 12 days after grouping to the tumor volume upon grouping was calculated to obtain a relative tumor volume. The tumor growth inhibition ratio (%) was determined using the relative tumor volumes of the drug-administered groups and the control group.

Experiment in series [2]: as above
The class given is in vivo, male mice C57BL/6. As to conditions: folinic acid 40.0 mg/kg/day (given as calcium folinate), alone or with tegafur+gimeracil+oteracil potassium 8.7+2.5+8.5 mg/kg/day or tegafur+uracil 15.1+33.8 mg/kg/day, oral once a day for 9 days; 12 days after grouping. As to the method: as §1

The nature of series [3]: Body weight change as parameter of whole-body toxicity (Example 1). Conditions: folinic acid 20.0 mg/kg/day (given as calcium folinate), alone or with tegafur+gimeracil+oteracil potassium 8.3+2.4+8.1 mg/kg/day or tegafur+uracil 20.0+44.8 mg/kg/day, oral once a day for 9 days; 10 days after beginning of administration.
From the text: A cubic fragment measuring about 2 mm in diameter of the human colon cancer cell line KM20C was subcutaneously implanted on the backs of male nude mice BALB/c-nu/nu. When the average tumor volume (=major axis (mm)×minor axis (mm)^2) reached about 200 mm^3, the mice were divided into groups.
The following preparations each dissolved or suspended in a 0.5% hydroxypropylmethyl cellulose (HPMC) solution were orally administered to the mice once a day in amounts as shown in Table 1 for 9 consecutive days from the day after grouping: calcium folinate; a tegafur/gimeracil/oteracil potassium combined drug (molar ratio of tegafur:gimeracil:oteracil potassium=1:0.4:1); a combined drug containing the tegafur/gimeracil/oteracil potassium combined drug described above and calcium folinate; a tegafur/uracil combined drug (molar ratio of tegafur:uracil=1:4); and a combined drug containing the tegafur/uracil combined drug described above and calcium folinate.
(§2) The body weight change was calculated by subtracting the body weight of mice 10 days after the beginning of administration from the body weight of mice upon grouping and used as a parameter of whole-body toxicity of the pharmaceutical preparation.
In series [4] the test system is human colon cancer cell line KM20C. Kind of series: Effect of folinate dosage on the antitumor effect on implanted KM20C tumor in nude mice, 14-day oral dosing (Example 3). The class given is in vivo, male nude mice (BALB/cA-nu). As to conditions: for enhancement of the antitumor effect of the tegafur/gimeracil/oteracil potassium combined drug: KM20C. As to the method: The ratio of the tumor volume 15 days after grouping to the tumor volume upon grouping was calculated to obtain a relative tumor volume. The tumor growth inhibition ratio (%) was determined using the relative tumor volumes of the drug-administered groups and the control group.

Series [5] shares this test system. Kind of series: Antitumor effect on subcutaneously implanted KM20C tumor in nude mice, 9-day oral dosing (Example 1). The class given is in vivo, male nude mice BALB/c-nu/nu. Conditions: folinic acid 20.0 mg/kg/day (given as calcium folinate), alone or with tegafur+gimeracil+oteracil potassium 8.3+2.4+8.1 mg/kg/day or tegafur+uracil 20.0+44.8 mg/kg/day, oral once a day for 9 days, 10 days after grouping. How it is done:
The ratio of the tumor volume 10 days after grouping to the tumor volume upon grouping was calculated to obtain a relative tumor volume. The tumor growth inhibition ratio (%) was determined using the relative tumor volumes of the drug-administered groups and the control group.

Series [6] can be described thus: Body weight change as parameter of whole-body toxicity (Example 2). Conditions: folinic acid 40.0 mg/kg/day (given as calcium folinate), alone or with tegafur+gimeracil+oteracil potassium 8.7+2.5+8.5 mg/kg/day or tegafur+uracil 15.1+33.8 mg/kg/day, oral once a day for 9 days; 10 days after beginning of administration.
From the text: A cubic fragment measuring about 2 mm in diameter of the human colon cancer cell line Colon 38 was subcutaneously implanted on the backs of male mice C57BL/6. When the average tumor volume (=major axis (mm)×minor axis (mm)^2) reached about 150 mm^3, the mice were divided into groups.
The following preparations each dissolved or suspended in a 0.5% hydroxypropylmethyl cellulose (HPMC) solution were orally administered to the mice once a day in amounts as shown in Table 2 for 9 consecutive days from the day after grouping: calcium folinate; a tegafur/gimeracil/oteracil potassium combined drug (molar ratio of tegafur:gimeracil:oteracil potassium=1:0.4:1); a combined drug containing the tegafur/gimeracil/oteracil potassium combined drug described above and calcium folinate; a tegafur/uracil combined drug (molar ratio of tegafur:uracil=1:4); and a combined drug containing the tegafur/uracil combined drug described above and calcium folinate.
as §2
Series [7] is described as follows: Body weight change as parameter of whole-body toxicity (Example 3). As to conditions: folinic acid 20.0 mg/kg/day (as calcium folinate), alone or with tegafur+gimeracil+oteracil potassium 5.7+1.7+5.6 mg/kg/day, oral once a day for 14 days; 15 days after beginning of administration.
From the text: A cubic fragment measuring about 2 mm in diameter of the human colon cancer cell line KM20C was subcutaneously implanted on the backs of male nude mice (BALB/cA-nu). When the average tumor volume (=major axis (mm)×minor axis (mm)^2) reached about 200 mm^3, the mice were divided into groups.
A combined drug containing a tegafur/gimeracil/oteracil potassium combined drug (molar ratio of tegafur:gimeracil oteracil potassium=1:0.4:1) and calcium folinate, dissolved or suspended in a 0.5% hydroxypropylmethyl cellulose (HPMC) solution was orally administered to the mice once a day in amounts as shown in Table 3 for 14 consecutive days from the day after grouping.
The body weight change was calculated by subtracting the body weight of mice 15 days after the beginning of administration from the body weight of mice upon grouping used as a parameter of whole-body toxicity of the pharmaceutical preparation. Although calcium folinate was used in the experiment, the dosage given in the table is that calculated as the amount of folinic acid.
For another series, the system named is 5-FU degradation. Conditions: compared with uracil; cited from earlier work.

Regarding `Nc1nc(=O)c2c([nH]1)NCC(CNc1ccc(C(=O)N[C@@H](CCC(=O)O)C(=O)O)cc1)N2C=O` (mixture of isomers) [folinic acid], the “Tumor growth inhibition ratio (%)” value is on record as 7.5% in series [1]; 5.4% in series [4] (folinic acid 20.0 mg/kg/day (as calcium folinate), alone or with tegafur+gimeracil+oteracil potassium 5.7+1.7+5.6 mg/kg/day, oral once a day for 14 days, 15 days after grouping, vs control group); 6.1% in series [5] (vs control group). Besides, the “Relative tumor volume (Mean ± SD)” value was 8.78 in series [2]; 4.50 ± 1.25 ^ in series [4] (folinic acid 20.0 mg/kg/day (as calcium folinate), alone or with tegafur+gimeracil+oteracil potassium 5.7+1.7+5.6 mg/kg/day, oral once a day for 14 days, 15 days after grouping); 2.24 in series [5]. Moreover, the “Body weight change” value was -0.8 g in series [3], 0.7 g in series [6] and -0.6 g in series [7]. In addition, the “enhancement of the antitumor effect of the tegafur/gimeracil/oteracil potassium combined drug” value was “some enhancement” in series [4] (calcium folinate at the dose of 2.5 mg/kg/day) and “clear enhancement” in series [4] (calcium folinate at the dose of 5 mg/kg/day).
For the compound `Oc1cc(O)c(Cl)cn1` [gimeracil, 2,4-dihydroxy-5-chloropyridine], the “5-FU degradation inhibitory effect relative to that of uracil” value in the series with 5-FU degradation was “about 200 times”.
